# Results published in patent EP0103895A2, “Novel hydroxylamine derivatives, production and use thereof” (MEIJI SEIKA KABUSHIKI KAISHA, priority 1982, dated 1984).
# “And” between values parts separate entries of the source, which are not always exact repeats. Equal entries are not always repeated. Where two headings read alike, the source gives them in different places.
# Assays:
# [1] = system: fowl roundworm (As. galli); assay: Anthelmintic test in chickens artificially infected with fowl roundworm, compound added to feed, E.P.G. and worm count up to 21st day (Test Examples A2, B2, C2, D2); format: in vivo, Ascaridia galli; conditions: for inhibition in vivo at 20 ppm / inhibition in vivo at 50 ppm / inhibition in vivo at 25 ppm: Ascaridia galli, 504 h, read-out: Anthelmintic effect; for Change of E.P.G. Before administration: baseline
# Procedure: Chickens artificially infected with fowl roundworm (As. galli) were employed in groups each of two chickens.
# Fecal matter testing was conducted before initiation of the test and on the 7th, 14th and 21st day after initiation of the test. Reduction in worm egg number was examined by calculating E.P.G. (worm eggs per 1 g of fecal matter), and the number of discharged worm bodies and the number of worm bodies remaining in the enteron when the chicken was killed on 21st day were counted to determine the anthelmintic percentage, from which the anthelmintic effect was judged.
# [2] = system: fowl roundworm (Ascaridia galli); assay: Anthelmintic test in chickens artificially infected with fowl roundworm, single oral dose in gelatin capsule, worm bodies counted within 48 hours (Test Examples A1, B1, C1, D1); format: in vivo; conditions: for inhibition in vivo at 30 mg/kg / inhibition in vivo at 50 mg/kg / inhibition in vivo at 15 mg/kg: Ascaridia galli, po, 48 h, read-out: Anthelmintic effect after 48 hours
# Procedure: Chickens infected artificially with fowl roundworm (Ascaridia galli) were employed in groups each consisting of three chickens. Fecal matter testing was conducted before administration of medicine to confirm infection with the worm. The quantity of the compound provided for testing was 10 mg and 20 mg per Kg of body weight, which was orally administered each in a gelatin capsule to the chicken. The number of worm bodies discharged within 48 hours after administration of medicine was counted, the chicken was killed after 48 hours and the number of worm bodies remaining in the enteron was counted to determine the anthelmintic percentage, wherefrom the antihelmintic effect was judged.
# The same as that in Test Example Al.
# The same as that in Test Example Al except that the compound provided for testing was in quantities of 30 mg and 50 mg per Kg of body weight, which were orally administered to the chickens in gelatin capsules.
# The same as that in Test Example Al, except that the compounds provided for testing were used in quantities of 15 mg and 30 mg per Kg of body weight, which were orally administered each in a gelatin capsule to the chicken.
# [3] = system: canine filaria; Dirofilaria immitis; assay: Test of anthelmintic effect against canine filaria in naturally infected dogs, subcutaneous injection, microfilaria in blood and adult filaria at autopsy (Test Examples A10, B10, C10, D10); format: in vivo
# Procedure: Eight dogs infected with canine filaria; Diro- filaria immitis (naturally infected dogs) were employed in groups each of two dogs.
# The compounds provided for tests were Compound Nos. Al, A3 and A12. 20 mg of each was administered by subcutaneous injection per Kg of body weight to each of the two dogs as a suspension in 1% "Tween 80" solution once per day for three days. As control, 3 ml of the 1% "Tween 80" solution was subcutaneously injected into two dogs once per day for three days.
# Before administration and on the 10th day after administration, 20 µl of earlobe blood of each dog was sampled and examined to determine the change in microfilaria (mf) according to the concentrated smear color method, and judgement on the effect on microfilaria (mf) was made. Judgement relating to adult filaria was made on the 10th day after the last administration by killing the dogs and carrying out autopsis.
# 30 mg of each compound was administered by subcutaneous injection per Kg of body weight to each of the two dogs as a suspension in 1% "Tween 80" solution once per day for three days. As control, 3 ml of the 1% "Tween 80" solution was subcutaneously injected into two dogs once per day for three days.
# 30 mg of each compound was administered by subcutaneous injection per Kg of body weight to each of two dogs as a suspension in 1% "Tween 80" solution once per day for three days. As control, 3 ml of the 1% "Tween 80" solution was subcutaneously injected to two dogs once per day for three days.
# 20 mg of each compound was administered by subcutaneous injection per kg of body weight once per day for three days to each of two dogs. These compounds were administered as a suspension in 1% "Tween 80" in the case of Compound No.Dl3 and as solutions dissolved in distilled water for injection in the case of Compounds Nos. D10 and D16, respectively. As control, 3 ml of the 1% "Tween 80" solution was subcutaneously injected into two dogs once per day for three days.
# [4] = po, chickens, 20 ppm added to feed, worm count on 21st day, one value per chicken
# [5] = po, chickens, 50 ppm added to feed, worm count on 21st day, one value per chicken
# [6] = chickens, 30 mg/Kg orally in gelatin capsule, one value per chicken (No.1-3)
# [7] = chickens, 50 mg/Kg orally in gelatin capsule, one value per chicken (No.1-3)
# [8] = chickens, 20 ppm added to feed, one value per chicken
# [9] = chickens, 50 ppm added to feed, one value per chicken
# [10] = feed or water, chicken, 25 ppm in feed
# [11] = feed or water, chicken, 50 ppm in feed
# [12] = chicken, 30 mg/Kg oral in gelatin capsule, chickens No.1-3
# [13] = chicken, 50 mg/Kg oral in gelatin capsule, chickens No.1-3
# [14] = chicken, 15 mg/Kg oral in gelatin capsule, chickens No.1-3
compound,measurement,setting,value
"C=CCN(OC)C(=O)CC [Compound B2, N-allyl-N-propionyl-O-methylhydroxylamine]",inhibition in vivo at 20 ppm,[1]; [4],80 to 90%
same,inhibition in vivo at 50 ppm,[1]; [5],100%
same,inhibition in vivo at 30 mg/kg,[2]; [6],100%
same,inhibition in vivo at 50 mg/kg,[2]; [7],100%
"C=CCN(OC)C(=O)CCC [Compound B3, N-allyl-N-butylyl-O-methylhydroxylamine]",anthelmintic effect,"[1]; chickens, 20 ppm added to feed, worm count on 21st day, one value per chicken",++ (80 - 90%)
same,Change of E.P.G. Before administration,[1]; [8],"5,600 E.P.G. and 7,900 E.P.G."
same,Change of E.P.G. 7th day,[1]; [8],"3.100 E.P.G. and 3,000 E.P.G."
same,anthelmintic effect,"[1]; chickens, 50 ppm added to feed, worm count on 21st day, one value per chicken",+++ (100%)
same,Change of E.P.G. Before administration,[1]; [9],"10,700 E.P.G. and 14,300 E.P.G."
same,Change of E.P.G. 21st day,[1]; [9],0 E.P.G.
same,Anthelmintic effect after 48 hours,[2]; [6],+++ (100%)
same,Anthelmintic effect after 48 hours,[2]; [7],+++ (100%)
"C=CCN(OC)C(=O)CCCCCCC/C=C\CCCCCCCC [Compound B4, N-allyl-N-oleoyl-O-methylhydroxylamine]",inhibition in vivo at 20 ppm,[1]; [4],100%
same,inhibition in vivo at 50 ppm,[1]; [5],100%
same,inhibition in vivo at 30 mg/kg,[2]; [6],100%
same,inhibition in vivo at 50 mg/kg,[2]; [7],100%
"C=CCN(C=O)OC [Compound B6, N-allyl-N-formyl-O-methylhydroxylamine]",inhibition in vivo at 20 ppm,[1]; [4],80 to 90%
same,inhibition in vivo at 50 ppm,[1]; [5],100%
same,inhibition in vivo at 30 mg/kg,[2]; [6],100%
same,inhibition in vivo at 50 mg/kg,[2]; [7],100%
"CC=CCN(OC)C(C)=O [Compound B7, N-crotyl-N-acetyl-O-methylhydroxylamine]",inhibition in vivo at 30 mg/kg,[2]; [6],100%
same,inhibition in vivo at 50 mg/kg,[2]; [7],100%
"C=CCN(OCC)C(=O)CC [Compound B9, N-allyl-N-propionyl-O-ethylhydroxylamine]",inhibition in vivo at 30 mg/kg,"[3]; Dirofilaria immitis, sc, 240 h, dogs, administration of 30 mg/Kg repeated three times, given as about 50% or more, read-out: anthelmintic effect against adult filaria",≥ 50%
same,Number of microfilaria/20 µl on 10th day after the last administration,"[3]; dog, 30 mg/Kg x 3, subcutaneous injection, suspension in 1% Tween 80",0 /20 µl
same,Effect on adult filaria: Number of worms killed/ Total parasite,"[3]; dog, 30 mg/Kg x 3, subcutaneous injection, 30 mg/kg",5/7 and 4/8
same,anthelmintic effect against microfilaria (mf),"[3]; dogs, administration of 30 mg/Kg repeated three times",marked anthelmintic effect
same,inhibition in vivo at 30 mg/kg,[2]; [6],100%
same,inhibition in vivo at 50 mg/kg,[2]; [7],100%
"C=CCN(OCC)C(=O)CCC [Compound B10, N-allyl-N-butylyl-0-ethylhydroxylamine]",inhibition in vivo at 30 mg/kg,[2]; [6],100%
same,inhibition in vivo at 50 mg/kg,[2]; [7],100%
"C=CCN(OCC)C(=O)CC(C)C [Compound B11, N-allyl-N-isovaleroyl-O-ethylhydroxylamine]",inhibition in vivo at 30 mg/kg,[2]; [6],100%
same,inhibition in vivo at 50 mg/kg,[2]; [7],100%
"C=CCN(OCC)C(=O)CCCCCCCCCCCCCCCCC [Compound B12, N-allyl-N-stearoyl-O-ethylhydroxylamine]",inhibition in vivo at 30 mg/kg,[2]; [6],100%
same,inhibition in vivo at 50 mg/kg,[2]; [7],100%
"C=CCN(OCC)C(=O)c1ccccc1 [Compound B13, N-allyl-N-benzoyl-0-ethylhydroxylamine]",inhibition in vivo at 30 mg/kg,[2]; [6],100%
same,inhibition in vivo at 50 mg/kg,[2]; [7],100%
"C=CCN(OCC)C(=O)c1ccc(F)cc1 [Compound B14, N-allyl-N-(p-fluorobenzoyl)-O-ethylhydroxylamine]",inhibition in vivo at 30 mg/kg,[2]; [6],100%
same,inhibition in vivo at 50 mg/kg,[2]; [7],100%
"C=CCN(C=O)OCC [Compound B15, N-allyl-N-formyl-O-ethylhydroxylamine]",inhibition in vivo at 20 ppm,[1]; [4],80 to 90%
same,inhibition in vivo at 50 ppm,[1]; [5],100%
same,inhibition in vivo at 30 mg/kg,[2]; [6],100%
same,inhibition in vivo at 50 mg/kg,[2]; [7],100%
"CC=CCN(OCC)C(C)=O [Compound B16, N-crotyl-N-acetyl-O-ethylhydroxylamine]",inhibition in vivo at 20 ppm,[1]; [4],100%
same,inhibition in vivo at 50 ppm,[1]; [5],100%
same,inhibition in vivo at 30 mg/kg,[2]; [6],100%
same,inhibition in vivo at 50 mg/kg,[2]; [7],100%
"C=CCN(OCCC)C(C)=O [Compound B17, N-allyl-N-acetyl-O-propylhydroxylamine]",inhibition in vivo at 20 ppm,[1]; [4],80 to 90%
same,inhibition in vivo at 50 ppm,[1]; [5],100%
same,inhibition in vivo at 30 mg/kg,[2]; [6],100%
same,inhibition in vivo at 50 mg/kg,[2]; [7],100%
"C=CCN(OCCCC)C(C)=O [Compound B18, N-allyl-N-acetyl-0-butylhydroxylamine]",inhibition in vivo at 20 ppm,[1]; [4],100%
same,inhibition in vivo at 50 ppm,[1]; [5],100%
same,inhibition in vivo at 30 mg/kg,[2]; [6],100%
same,inhibition in vivo at 50 mg/kg,[2]; [7],100%
C=CCON(CC=C)C(=O)CCCCCCCCCCCCCCCCC [Compound C5],inhibition in vivo at 25 ppm,[1]; [10],80 to 90%
same,inhibition in vivo at 50 ppm,[1]; [11],100%
same,inhibition in vivo at 30 mg/kg,[2]; [12],80 to 90%
same,inhibition in vivo at 50 mg/kg,[2]; [13],80 to 90%
C=CCON(C=O)CC=C [Compound C8],inhibition in vivo at 25 ppm,[1]; [10],100%
same,inhibition in vivo at 50 ppm,[1]; [11],100%
same,Change of E.P.G. 21st day,"[1]; chicken, 25 ppm in feed",0
same,Change of E.P.G. 21st day,"[1]; chicken, 50 ppm in feed",0
same,inhibition in vivo at 30 mg/kg,[2]; [12],100%
same,inhibition in vivo at 50 mg/kg,[2]; [13],100%
"C=CCNOCCC [Compound D2, N-allyl-0-propylhydroxylamine]",inhibition in vivo at 25 ppm,[1]; [10],80 to 90%
same,inhibition in vivo at 50 ppm,[1]; [11],100%
same,inhibition in vivo at 30 mg/kg,[2]; [12],100%
C=CCNOCC=C [Compound D4],inhibition in vivo at 25 ppm,[1]; [10],80 to 90%
same,inhibition in vivo at 50 ppm,[1]; [11],100%
same,inhibition in vivo at 15 mg/kg,[2]; [14],80 to 90%
same,inhibition in vivo at 30 mg/kg,[2]; [12],100%
C#CCONCC=C [Compound D5],inhibition in vivo at 25 ppm,[1]; [10],80 to 90%
same,inhibition in vivo at 50 ppm,[1]; [11],100%
same,inhibition in vivo at 15 mg/kg,[2]; [14],100%
same,inhibition in vivo at 30 mg/kg,[2]; [12],100%
same,Anthelmintic effect after 48 hours,"[2]; chicken, 15 mg/Kg oral in gelatin capsule, chickens No.1-3, 15 mg/kg",+++ (100%)
same,Anthelmintic effect after 48 hours,[2]; [12],+++ (100%)
CC=CCNOCC [Compound D7],inhibition in vivo at 30 mg/kg,[2]; [12],100%
C=CCONCC=CC [Compound D8],inhibition in vivo at 15 mg/kg,[2]; [14],80 to 90%
same,inhibition in vivo at 30 mg/kg,[2]; [12],100%
C#CCNOCCC [Compound D11],inhibition in vivo at 30 mg/kg,[2]; [12],100%
"C#CCNOCC=C [Compound D13, N-propargyl-O-allylhydroxylamine]",inhibition in vivo at 20 mg/kg,"[3]; Dirofilaria immitis, sc, 240 h, dog, 20 mg/Kg x 3, subcutaneous injection, read-out: Effect on adult filaria: Percent of worms killed",63%
same,inhibition in vivo at 20 mg/kg,"[3]; Dirofilaria immitis, sc, 240 h, dogs, administration of 20 mg/Kg repeated three times, given as about 50% or more, read-out: anthelmintic effect against adult filaria",≥ 50%
same,Number of microfilaria/20µl On 10th day after the administration,"[3]; dog, 20 mg/Kg x 3, subcutaneous injection",0 /20µl
same,Effect on adult filaria: Number of worms killed/ Total parasite,"[3]; dog, 20 mg/Kg x 3, subcutaneous injection, 20 mg/kg",21/33 and 20/30
same,Number of microfilaria/20µl Before administration,"[3]; dog, before 20 mg/Kg x 3 subcutaneous injection (baseline)",33 /20µl and 26 /20µl
same,anthelmintic effect against microfilaria (mf),"[3]; dogs, administration of 20 mg/Kg repeated three times",marked anthelmintic effect
same,inhibition in vivo at 15 mg/kg,[2]; [14],80 to 90%
same,inhibition in vivo at 30 mg/kg,[2]; [12],100%
